IC50 data for four molecules are collected here from PMC7176929, “Meroterpenoids With Protein Tyrosine Phosphatase 1B Inhibitory Activities From the Fruiting Bodies of Ganoderma ahmadii” (Frontiers in Chemistry, 2020).

For orientation: IC50 means the concentration at which inhibition is half-maximal.

The target in the experiment is T1, recombinant PTP1B catalytic domain (Homo sapiens, UniProt P18031).
T1 construct: made in house
T1 sequence (P18031 3-277 limits assumed): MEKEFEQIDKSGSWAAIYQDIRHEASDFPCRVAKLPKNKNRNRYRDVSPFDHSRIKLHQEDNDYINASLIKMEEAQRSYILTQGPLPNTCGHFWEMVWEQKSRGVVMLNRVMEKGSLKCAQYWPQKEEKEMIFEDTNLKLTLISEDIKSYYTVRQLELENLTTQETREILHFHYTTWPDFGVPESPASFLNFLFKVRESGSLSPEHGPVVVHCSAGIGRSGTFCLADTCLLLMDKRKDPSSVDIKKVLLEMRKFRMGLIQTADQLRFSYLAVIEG
Description: PTP1B inhibition assay (pNPP substrate). Format: biochemical. The following applies: pNPP as substrate, absorbance at 405 nm, 37 °C; read-out: IC50, inhibitory activity against PTP1B. The method, then:
The expressed and purified methods of recombinant PTP1B catalytic domain were the same as references (Liu et al., [2018]). The dephosphorylation of p-nitrophenyl phosphate (pNPP) generated the product pNP, which can be monitored at an absorbance for 405 nm. The compounds were pre-incubated with the enzyme at 37 °C for 5 min. […] After incubation at 37°C for 15 min, the reaction was […] using 0.5 M pNPP (12.5 μL). After initializing the enzymatic reaction, the plate was then read every 20 s for 15 min in the microplate reader at 405 nm. […] The equation used was: [(Ablank-Asample)/Ablank] × 100%. The IC50 values were determined by linear or non-linear regression analysis of the concentration-response data curve.
Take `C/C(=C\CCC(CO)CCC/C(=C/C(=O)c1cc(O)ccc1O)C(=O)O)COC(=O)/C=C/c1ccc(O)c(O)c1` (stereo not shown) [Compound 2, Ganoduriporol G]: the half-maximal inhibitory concentration (IC50) came to 20 µM. On to `C/C(=C\CC/C(=C/CC/C(=C/C(=O)c1cc(O)ccc1O)C(=O)O)CO)COC(=O)/C=C/c1ccc(O)cc1` [Compound 1, Ganoduriporol F], for which the half-maximal inhibitory concentration (IC50) amounted to 17 µM. For the molecule `CC(=O)OCC(CC/C=C(\C)COC(=O)/C=C/c1ccc(O)cc1)CCC/C(=C/C(=O)c1cc(O)ccc1O)C(=O)O` (stereo not shown) [Compound 4, Ganoduriporol I], the IC50 turned out to be 23 µM.

Take `CC(=O)OCC(CC/C=C(/CC(=O)c1cc(O)ccc1O)C(=O)O)CC/C=C(\C)COC(=O)/C=C/c1ccc(O)cc1` (stereo not shown) [Compound 3, Ganoduriporol H]: the half-inhibitory concentration (IC50) was 19 µM.
